Molecular target: T1, 11β-HSD2 (Homo sapiens, UniProt P80365)
T1 construct: FLAG; expressed in transfected cells; host or cells: LAPC4
T1 sequence (P80365 1-405): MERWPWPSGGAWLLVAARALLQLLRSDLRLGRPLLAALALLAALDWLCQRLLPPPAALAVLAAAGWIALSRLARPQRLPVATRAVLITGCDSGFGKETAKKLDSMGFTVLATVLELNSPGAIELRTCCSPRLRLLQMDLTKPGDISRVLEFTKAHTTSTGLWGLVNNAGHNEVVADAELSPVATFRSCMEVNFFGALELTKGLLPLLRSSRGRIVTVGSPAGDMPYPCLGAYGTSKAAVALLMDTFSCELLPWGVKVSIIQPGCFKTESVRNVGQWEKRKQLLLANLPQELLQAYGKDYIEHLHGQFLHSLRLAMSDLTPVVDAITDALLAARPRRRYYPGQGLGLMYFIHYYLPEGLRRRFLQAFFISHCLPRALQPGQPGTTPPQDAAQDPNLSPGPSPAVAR
Assay: Direct 11β-HSD2 antagonism: cortisol to cortisone conversion in LAPC4 cells transfected with 11β-HSD2 vector
Assay type: cell-based
Settings: LAPC4 transfected with 11β-HSD2 vector, [3H]-cortisol 100 nM
Procedure: Gene expression. The day before transfection, LAPC4 cells were plated into 12 well plates coated with poly-DL-ornithine (˜7×10^5 cells/well). On the day of transfections, an Erlin-2 expressing plasmid, Erlin-2-Myc-DDK-tagged (OriGene) or 11β-HSD2-expressing plasmid FCIV1-11β-HSD2-FLAG was introduced into the cells with Lipofectamine® 3000 Reagent (Life Technology). After 48 hours, the cells were collected and used for the detection of 11β-HSD2 and Erlin-2 by immunoblot, or treated with Enz for 24 hours to determine the effects on cortisol metabolism by HPLC as described herein.

In the case of `CNC(=O)c1ccc(N2C(=S)N(c3ccc(C#N)c(C(F)(F)F)c3)C(=O)C2(C)C)cc1F` [enzalutamide], the “direct 11β-HSD2 antagonism” value is reported as “no direct 11β-HSD2 antagonism”.

— patent US20180296531A1, “STIMULATION OF 11B-HSD2 EXPRESSION TO IMPROVE HORMONAL THERAPY OF STEROID-DEPENDENT DISEASE” (THE CLEVELAND CLINIC FOUNDATION, priority 2015, published 2018)
